Earlier results, collected in patent publication US12133892B2, “Methods and compositions for increasing susceptibility to radiation treatment by inhibiting suppression of numerical chromosomal instability of cancer cells” (MEMORIAL SLOAN KETTERING CANCER CENTER, priority 2015, dated 2024).
Values belong to the compound of their own block, whether it stands above or below them.

What was measured:
[1] = target: Bub1 (Homo sapiens, UniProt O43683)
[2] = tested on: breast cancer cell lines
[3] = tested on: Kif2b; conditions: read-out: IC50 in inhibiting Kif2b
[4] = target: T1, MCAK (Homo sapiens, UniProt Q99661); conditions: read-out: IC50 in inhibiting MCAK
T1 sequence (Q99661 1-725): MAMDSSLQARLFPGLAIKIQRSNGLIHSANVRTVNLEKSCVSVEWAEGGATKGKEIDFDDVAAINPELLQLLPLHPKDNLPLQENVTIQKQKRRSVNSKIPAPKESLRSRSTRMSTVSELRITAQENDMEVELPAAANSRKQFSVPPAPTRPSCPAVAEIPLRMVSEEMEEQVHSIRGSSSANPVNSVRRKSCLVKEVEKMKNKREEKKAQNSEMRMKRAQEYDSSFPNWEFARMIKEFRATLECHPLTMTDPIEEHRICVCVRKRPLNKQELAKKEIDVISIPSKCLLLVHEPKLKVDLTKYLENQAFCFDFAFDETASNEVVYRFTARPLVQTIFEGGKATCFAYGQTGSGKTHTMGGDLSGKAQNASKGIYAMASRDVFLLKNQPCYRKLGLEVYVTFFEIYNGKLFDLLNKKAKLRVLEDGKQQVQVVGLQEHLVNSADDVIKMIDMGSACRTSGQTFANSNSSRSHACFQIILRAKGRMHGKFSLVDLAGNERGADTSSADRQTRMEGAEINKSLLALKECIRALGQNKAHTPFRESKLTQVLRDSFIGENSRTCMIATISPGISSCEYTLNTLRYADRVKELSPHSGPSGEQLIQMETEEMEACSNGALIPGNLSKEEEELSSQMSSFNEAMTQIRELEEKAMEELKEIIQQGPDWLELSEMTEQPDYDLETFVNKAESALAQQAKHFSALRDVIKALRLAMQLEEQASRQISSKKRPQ

[5] = tested on: human glioblastoma; conditions: 100 mg/kg
[6] = tested on: BubR1
[7] = tested on: triple negative breast cancer, colon cancer and liver cancer; conditions: animal models of triple negative breast cancer
[8] = mice, 7 days, 7.5, 22.5, 75.0 mg/kg twice a day oral
[9] = tested on: breast cancer model; conditions: mice, twice a day for 28 days, orally 10, 25, 50 mg/kg
[10] = target: T2, PLK4 (Homo sapiens, UniProt O00444); conditions: in vitro; read-out: inhibition constant (Ki)
T2 sequence (O00444 1-970): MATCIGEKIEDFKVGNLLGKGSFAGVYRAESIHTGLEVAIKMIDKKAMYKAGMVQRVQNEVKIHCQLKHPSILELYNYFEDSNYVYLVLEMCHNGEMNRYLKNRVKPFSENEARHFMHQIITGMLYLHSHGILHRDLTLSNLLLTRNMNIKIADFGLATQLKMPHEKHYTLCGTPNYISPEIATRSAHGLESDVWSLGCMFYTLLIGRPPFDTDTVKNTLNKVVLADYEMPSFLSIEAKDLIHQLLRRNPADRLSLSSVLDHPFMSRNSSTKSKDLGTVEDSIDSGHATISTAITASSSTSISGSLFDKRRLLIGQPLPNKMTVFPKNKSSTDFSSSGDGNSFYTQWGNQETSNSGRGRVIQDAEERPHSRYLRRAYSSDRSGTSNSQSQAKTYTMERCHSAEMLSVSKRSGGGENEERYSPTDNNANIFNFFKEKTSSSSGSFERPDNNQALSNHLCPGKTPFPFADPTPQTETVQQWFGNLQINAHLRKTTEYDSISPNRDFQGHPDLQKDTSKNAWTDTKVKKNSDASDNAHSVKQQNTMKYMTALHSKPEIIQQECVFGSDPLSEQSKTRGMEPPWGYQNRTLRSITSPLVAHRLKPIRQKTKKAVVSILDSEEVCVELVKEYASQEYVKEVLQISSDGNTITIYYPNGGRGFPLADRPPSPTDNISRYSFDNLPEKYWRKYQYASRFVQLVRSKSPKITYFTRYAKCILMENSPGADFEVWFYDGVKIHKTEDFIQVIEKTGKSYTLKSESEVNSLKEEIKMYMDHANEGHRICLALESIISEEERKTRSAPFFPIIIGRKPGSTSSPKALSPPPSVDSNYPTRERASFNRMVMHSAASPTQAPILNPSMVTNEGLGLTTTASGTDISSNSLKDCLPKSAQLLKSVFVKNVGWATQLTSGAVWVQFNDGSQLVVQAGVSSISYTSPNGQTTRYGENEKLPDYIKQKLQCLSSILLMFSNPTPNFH

[11] = tested on: centrosome

Sequence of Bub1 (O43683 whole entry, species assumed): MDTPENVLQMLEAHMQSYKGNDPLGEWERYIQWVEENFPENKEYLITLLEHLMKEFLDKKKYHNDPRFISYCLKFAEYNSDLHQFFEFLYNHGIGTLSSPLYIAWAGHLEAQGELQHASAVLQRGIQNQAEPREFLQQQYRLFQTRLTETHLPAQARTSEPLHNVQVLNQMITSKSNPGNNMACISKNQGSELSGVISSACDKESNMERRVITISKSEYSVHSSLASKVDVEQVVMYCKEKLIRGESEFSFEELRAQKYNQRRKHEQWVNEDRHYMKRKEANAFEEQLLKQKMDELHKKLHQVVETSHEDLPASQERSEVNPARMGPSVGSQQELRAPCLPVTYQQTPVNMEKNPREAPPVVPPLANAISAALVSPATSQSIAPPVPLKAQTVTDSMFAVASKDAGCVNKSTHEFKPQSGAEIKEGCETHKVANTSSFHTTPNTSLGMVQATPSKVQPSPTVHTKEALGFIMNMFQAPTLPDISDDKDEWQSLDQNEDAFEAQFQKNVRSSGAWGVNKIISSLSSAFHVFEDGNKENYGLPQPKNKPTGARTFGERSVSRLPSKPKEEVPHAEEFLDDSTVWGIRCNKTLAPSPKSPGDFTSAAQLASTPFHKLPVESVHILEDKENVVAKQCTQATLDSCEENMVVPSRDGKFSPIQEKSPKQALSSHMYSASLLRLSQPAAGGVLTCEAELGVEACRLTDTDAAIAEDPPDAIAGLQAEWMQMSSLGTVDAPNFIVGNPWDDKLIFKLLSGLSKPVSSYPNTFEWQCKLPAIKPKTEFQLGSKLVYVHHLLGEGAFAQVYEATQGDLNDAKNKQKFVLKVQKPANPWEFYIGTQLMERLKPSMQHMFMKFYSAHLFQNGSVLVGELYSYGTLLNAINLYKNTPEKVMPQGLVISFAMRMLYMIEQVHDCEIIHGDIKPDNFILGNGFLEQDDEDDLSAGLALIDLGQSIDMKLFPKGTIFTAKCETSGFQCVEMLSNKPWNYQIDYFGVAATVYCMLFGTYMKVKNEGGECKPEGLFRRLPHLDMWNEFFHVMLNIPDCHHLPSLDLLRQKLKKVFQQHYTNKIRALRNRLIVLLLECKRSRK

IC50 [1]: ~250 nM
Structure (SMILES): CC(C)(C)n1nc(Cc2ccccc2O)c2c(N)ncnc21 [2OH-BNPP1]

Structure (SMILES): COc1ccc2c(c1)[C@]1(C[C@H]1c1ccc3c(/C=C/c4ccc(CN5C[C@@H](C)O[C@@H](C)C5)cc4)n[nH]c3c1)C(=O)N2 [CFI-400945]
chromosome missegregation rates [2]: increase chromosome missegregation rates

IC50 [3]: 1200 nM
IC50 [4]: 4600 nM
Structure (SMILES): CC1=C(C(=O)OC(C)C)C(c2ccc(Cl)cc2)n2c(s/c(=C\c3ccc(OCC(=O)O)cc3)c2=O)=N1 (stereo not drawn) [DHTP, (Z)-2-(4-((5-(4-chlorophenyl)-6-(isopropoxycarbonyl)-7-methyl-3-oxo-3,5-dihydro-2H-thiazolo[3,2-a]pyrimidin-2-ylidene)methyl)phenoxy)acetic acid]

Structure (SMILES): CCc1cccc(CC)c1NC(=O)c1nn(C)c2c1CCc1cnc(Nc3ccc(C(=O)NC4CCN(C)CC4)cc3OC(F)(F)F)nc1-2 [NMS-P715]
radiosensitization of human glioblastoma [5]: enhances radiosensitization of human glioblastoma

Structure (SMILES): COc1cc2c(cc1F)C(c1ccccc1Cl)=Nc1c(n[nH]c1C)N2 [R1530]
expression of mitotic checkpoint kinase BubR1 [6]: downregulates

Structure (SMILES): COc1ccc(Oc2cc(C)c(-c3csc(NC(=O)c4ccncc4)n3)c(C)c2)cc1 [TAI-1]
oral efficacy in vivo [7]: effective orally
change in body weight, organ weight, and plasma indices [8]: no significant change

Structure (SMILES): COCCOc1cnc(Sc2cc(C)c(-c3csc(NC(=O)c4ccncc4)n3)c(C)c2)cn1 [TAI-95]
oral efficacy in vivo [9]: excellent oral efficacy

Structure (SMILES): COc1c(Nc2cc(C)[nH]n2)nc(Sc2ccc(S(=O)(=O)Cc3cccc([N+](=O)[O-])c3F)cc2F)nc1N1CCCCC1 [centrinone-B]
Ki [10]: 0.6 nM
centrosome depletion at concentration [11]: 500 nM

Structure (SMILES): COc1c(Nc2cc(C)[nH]n2)nc(Sc2ccc(S(=O)(=O)Cc3cccc([N+](=O)[O-])c3F)cc2F)nc1N1CCOCC1 [centrinone]
centrosome depletion at concentration [11]: 100 nM
